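Method: 48-hour compound exposure of cells in 96-well plates, five concentrations, linear interpolation of endpoints. At the GI50, growth is halved.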 Active and inactive are the calls of the source. Cut-off read from the data, not from the text of the source: active = GI50 up to about 1.1 µM and inactive = higher.
Tests used:
Test in all cases: inhibition of tumour cell growth, NCI panel, 48 h
OVCAR-5 = tested on: OVCAR-5
NCI-H23 = tested on: NCI-H23
T47D = tested on: T47D
786-0 = tested on: 786-0
SF-268 = tested on: SF-268
Hs-578T = tested on: Hs-578T
M14 = tested on: M14
UACC-257 = tested on: UACC-257
HT-29 = tested on: HT-29
TK-10 = tested on: TK-10
SN12C = tested on: SN12C
NCI-H460 = tested on: NCI-H460
MOLT-4 = tested on: MOLT-4
ACHN = tested on: ACHN
SNB-75 = tested on: SNB-75
UACC-62 = tested on: UACC-62
UO-31 = tested on: UO-31
LOX IMVI = tested on: LOX IMVI
OVCAR-4 = tested on: OVCAR-4
NCI-H522 = tested on: NCI-H522

Measured: GI50

COc1ccc2nc3c(C)cc4ccccc4n3c2c1
inactive: OVCAR-5 > 100 µM | NCI-H23 > 100 µM | T47D > 100 µM | 786-0 48 µM | SF-268 86.9 µM | Hs-578T 18 µM | M14 > 100 µM | UACC-257 > 100 µM | HT-29 55 µM | TK-10 80.2 µM | SN12C > 100 µM | NCI-H460 25.3 µM | MOLT-4 23 µM | ACHN 47.3 µM | SNB-75 28.2 µM | UACC-62 > 100 µM | UO-31 52 µM

Cc1c2c(n(C)c1C)C(=O)C1C(C2=O)C2(C)c3ccccc3C1(C)c1ccccc12 (centres undefined)
inactive: OVCAR-5 > 100 µM | NCI-H23 > 100 µM | T47D > 100 µM | 786-0 > 100 µM | SF-268 > 100 µM | Hs-578T > 100 µM | M14 > 100 µM | UACC-257 > 100 µM | HT-29 > 100 µM | TK-10 > 100 µM | NCI-H460 > 100 µM | MOLT-4 > 100 µM | ACHN > 100 µM | SNB-75 > 100 µM | UACC-62 > 100 µM | UO-31 > 100 µM | LOX IMVI > 100 µM

O=C1C2=C(SCCS2)C(=O)c2c(Sc3ccc(Cl)cc3)c(Sc3ccc(Cl)cc3)c(Sc3ccc(Cl)cc3)c(Sc3ccc(Cl)cc3)c21
inactive: OVCAR-5 > 100 µM | NCI-H23 74.3 µM | T47D > 100 µM | 786-0 78.5 µM | SF-268 > 100 µM | Hs-578T 8.49 µM | M14 33.8 µM | UACC-257 > 100 µM | SN12C > 100 µM | NCI-H460 > 100 µM | OVCAR-4 > 100 µM | MOLT-4 17.1 µM | ACHN > 100 µM | SNB-75 19.1 µM | UACC-62 23.7 µM | UO-31 > 100 µM

O=C(O)C#Cc1ccc([N+](=O)[O-])cc1
inactive: OVCAR-5 > 100 µM | NCI-H23 > 100 µM | T47D > 100 µM | 786-0 > 100 µM | SF-268 > 100 µM | Hs-578T > 100 µM | M14 > 100 µM | UACC-257 > 100 µM | HT-29 > 100 µM | TK-10 > 100 µM | SN12C > 100 µM | NCI-H460 > 100 µM | OVCAR-4 > 100 µM | MOLT-4 > 100 µM | ACHN > 100 µM | UACC-62 > 100 µM | UO-31 > 100 µM | LOX IMVI > 100 µM

CN(C)c1ccc(/C=C2\C[C@H]3[C@@H]4CC=C5C[C@@H](O)CC[C@]5(C)[C@H]4CC[C@]3(C)[C@H]2O)cc1
inactive: OVCAR-5 17.3 µM | NCI-H23 15.9 µM | T47D 23.3 µM | 786-0 18.1 µM | SF-268 17 µM | Hs-578T 23.4 µM | M14 18.2 µM | UACC-257 18.2 µM | HT-29 8.09 µM | TK-10 18.5 µM | SN12C 12.8 µM | NCI-H460 14.4 µM | OVCAR-4 35.6 µM | MOLT-4 32 µM | ACHN 16 µM | SNB-75 29.2 µM | UACC-62 13.7 µM | UO-31 19.3 µM | LOX IMVI 8.51 µM

CN1CN(c2ccccc2)C2(CCN(CC(C)(c3ccc(F)cc3)C3OCCCO3)CC2)C1=O (centres undefined)
inactive: OVCAR-5 8.69 µM | NCI-H23 14.9 µM | T47D 17.7 µM | 786-0 20.4 µM | SF-268 17.8 µM | NCI-H522 16.8 µM | M14 16.9 µM | UACC-257 16 µM | HT-29 10.6 µM | TK-10 15.5 µM | SN12C 18.1 µM | MOLT-4 9.71 µM | ACHN 17.7 µM | SNB-75 18.7 µM | UACC-62 17.9 µM | UO-31 2.32 µM | LOX IMVI 17.5 µM
